Experimental data taken from patent publication US10588280B2, “Aided delivery of plant treatment agents” (Monsanto Technology LLC, priority 2014, dated 2020).

What was measured:
seedlings = settings: cited from earlier work
haploid corn seedlings = assay: Example 5: field transplanting survival after single or serial spin with colchicine; format: in vivo; settings: for 3-wk Survival (field transplanting): 50 g
Description: Haploid corn seedlings derived from a cross between commercial inbred 01DKD2 and the inducer KHI1 or commercial inbred 83IDI1 and KHI1 were treated by either single spin or serial spin centrifugation methods and recovered in a light, moisture, and temperature controlled environment for approximately 15 hours. Plants were then transplanted into a field and tended for three weeks, after which plant survival rates were assessed (Table 5).

[1] = system: haploid seedlings derived from 91DUQ1 or 83IDI1; assay: Example 7: serial centrifugation with colchicine at three growth stages (FIG. 4); format: in vivo, maize; settings: 1250 ppm colchicine, submerged 50 g 3 min then unsubmerged 335 g 3 min, ear with at least four kernels
Source text: Three different growth stages and the effects on DH-related success indicators between the three life stages were compared.
F1 hybrid-derived haploid seedlings derived from either female inbred line 91DUQ1 or male inbred line 83IDI1 were germinated in soil in a greenhouse in standard maize growing conditions. To ensure that the older seedlings would fit into the centrifuge sample container, and to ensure that all seedlings received the same chemical treatments, all seedlings were subjected to a 1% paclobutrazol (PBZ) soil drench treatment at 6 days after planting, 10 ml per plant.
This population of seedlings was subdivided into 3 samples, each comprising several dozen seedlings. Half of the seedlings in each sample were derived from 91DUQ1 and the other half derived from 83IDI1. A first sample was removed from the soil at the V1-V2 growth stage (1 week after planting), a second sample removed from the soil at the V3-V4 stage (2 weeks after planting) and a third sample removed from the soil at the V4-V5 growth stage (3 weeks after planting).
Following removal from the soil, seedlings in each sample were rinsed in water to remove residual soil, then wrapped in a PCS along with several wooden rods, similar that that shown in FIG. 9, and subjected to a first submerged centrifugation in 1250 ppm colchicine at 50 g for 3 min.
Following the first, submerged centrifugation, the plant treatment solution was decanted. The seedlings, with some residual agent clinging to their surfaces, were returned to the empty centrifuge container and subjected to a unsubmerged centrifugation at 335 g for 3 min. […]
Self-pollinations were attempted with each plant that survived the treatment to produce pollen and silks and during the ensuing growth the pollination success, fertilization success and final doubling efficiency were determined within each sample. In this experiment, the doubling efficiency within each growth stage sample was calculated by dividing the number of plants that produced at least one ear comprising at least four kernels by the total number of plants treated.

[2] = system: haploid maize seedlings (shoot meristem); assay: Example 1: single unsubmerged centrifugation after colchicine soak, chromosome doubling success; format: in vivo; settings: 1250 ppm colchicine 10 min soak, unsubmerged spin 335 g 3 min
Source text: Corn seeds of four different maize F1 hybrid-derived haploid induction populations were used in this experiment; two of the populations, Male 1 and Male 2, were derived from two different male inbred lines and the remaining two populations, Female 1 and Female 2, were derived from two different female inbred lines. Seeds of each germplasm were germinated in soil and the subsequent seedlings tended in a greenhouse under standard maize growing conditions until the seedlings reached the V1 to V2 growth stages.
Next, several randomly-selected seedlings of each germplasm were then removed from the soil, washed to remove residual soil and then subjected to a contacting step which included soaking the seedlings for 10 minutes in a liquid doubling agent comprising 1250 ppm colchicine.
After the contacting step, seedlings were bundled in a PCS with wooden rods, similar to that described in FIG. 9. The seedlings and rods were wrapped tightly together with several layers of aluminum foil. Care was taken to wrap the seedlings tightly, but not so tight as to damage the tissues of the seedling. The folds and layers of the wrap were arranged such that any liquid agent still clinging to the surface of the plant would not be trapped inside the wrap during centrifugation.
Once arranged in the centrifuge, seedlings were subjected to an unsubmerged centrifugation at 335 g for 3 min.
After centrifugation, the seedlings were removed from the centrifuge container, rinsed with water to remove any remaining plant treatment agent, and then transplanted into 10-inch pots in a growth room where they were tended under standard maize growing conditions until they grew to maturity and flowered.
Self-pollinations were attempted with each plant that survived the treatment to produce pollen and during the ensuing growth the pollination success, fertilization success and final doubling efficiency were determined within each sample.
Control samples of several randomly-selected seedlings from each germplasm received no exposure to the plant treatment agent, but were otherwise handled identically as their treated counterparts.

## COc1cc2c(c(OC)c1OC)-c1ccc(OC)c(=O)cc1[C@@H](NC(C)=O)CC2 [colchicine]
seedlings; Eder and Chalyk (2002), procedure of Deimling et al.: 0.06% colchicine and DMSO, 12 hours, dark room, range of genotypes
  average success rate: ~50%
seedlings; Gayen et al. (1994): coleoptile tips removed, extended (6+ hours) soak, colchicine 0.1% or less
  doubling rate: 18.05%
Haploid corn seedlings; either haploid line, regardless of colchicine concentration or second spin
  3 week post transplanting survival rate: higher than 80%
Haploid corn seedlings; haploid parent 01DKD2, 1000 ppm colchicine, submerged 10 min, no second spin
  3-wk Survival (field transplanting): 94%
Haploid corn seedlings; haploid parent 01DKD2, 1250 ppm colchicine, submerged 3 min, unsubmerged 3 min, 335 g
  3-wk Survival (field transplanting): 89%
Haploid corn seedlings; haploid parent 83IDI1, 1000 ppm colchicine, submerged 10 min, no second spin
  3-wk Survival (field transplanting): 81%
Haploid corn seedlings; haploid parent 83IDI1, 1250 ppm colchicine, submerged 3 min, unsubmerged 3 min, 335 g
  3-wk Survival (field transplanting): 83%
[1]; V1-V2 growth stage
  DE: over 70%
[1]; V4-V5 growth stage
  doubling efficiency, average: ~30%
  doubling efficiency, median: 36.7%
[2]; Female1
  DE (doubling efficiency): 42%
[2]; Female1, 19 plants treated
  Fertilization Successes: 8
  Pollination Successes: 10
[2]; Female2
  DE (doubling efficiency): 50%
[2]; Female2, 8 plants treated
  Fertilization Successes: 4
  Pollination Successes: 6
[2]; Male1
  DE (doubling efficiency): 71%
[2]; Male1, 14 plants treated
  Fertilization Successes: 10
  Pollination Successes: 13
[2]; Male2
  DE (doubling efficiency): 67%
[2]; Male2, 15 plants treated
  Fertilization Successes: 10
  Pollination Successes: 12
